The values that follow come from patent EP0110955B1, “BRAIN-SPECIFIC DRUG DELIVERY” (UNIVERSITY OF FLORIDA, priority 1982, dated 1983).

One data set deals with anterior pituitary (AP). In words: In vitro evaluation of the prolactin inhibitory effect on incubated anterior pituitaries. Type of data set: cell-based, rats. As to conditions: for Prolactin release rate of the incubated AP-S: 37°C, average of 9 separate AP-S. The procedure:
Adult female rats (Charles Rivers Lab.) weighing 225-250 g were maintained on food and water ad libitum. Animals were sacrificed by decapitation; their pituitary glands were quickly removed from the cranium. The anterior pituitary (AP) of each animal was dissected into two equal halves and placed into incubation media. (Gibco's Minimal Essential Media supplied by Grand Island Biological Co. was used.) The incubation was conducted at 37 °C, under continuous aeration (95% 02, 5% C02); the pH was 7.2. After one hour of preincubation, the media were discarded and replaced with fresh ones containing either DA ( 2 x 10-^8 M), 6a ( 2 x 10-^8) or ascorbic acid (10-^4 M). In all cases, one-half of AP received the test drug; the other, the ascorbate control. After one hour, samples were taken from the media and the remaining media were discarded. […] One hour later, the second samples were taken After the 3 h incubation period, each half AP's were weighed. The samples were diluted 1:50 with phosphate buffered saline and then assayed in triplicate by the radioimmunoassay method described. The data are given as ng prolactin released/mg wet weight/h. Paired Student's T-test was used to evaluate the significance of the inhibitory effects of the test drugs on prolactin secretion The control AP half and the drug treated half were employed in each paired comparison. See TABLE I and the discussion thereof hereinabove.

The target of data set [1] is T1, COMT (catechol-O-methyltransferase) (Rattus norvegicus, UniProt P22734).
T1 construct: from tissue; host or cells: rat brain homogenate (20%), rat liver homogenate (20%); also 80% plasma and whole citrated blood
T1 sequence (P22734 1-264): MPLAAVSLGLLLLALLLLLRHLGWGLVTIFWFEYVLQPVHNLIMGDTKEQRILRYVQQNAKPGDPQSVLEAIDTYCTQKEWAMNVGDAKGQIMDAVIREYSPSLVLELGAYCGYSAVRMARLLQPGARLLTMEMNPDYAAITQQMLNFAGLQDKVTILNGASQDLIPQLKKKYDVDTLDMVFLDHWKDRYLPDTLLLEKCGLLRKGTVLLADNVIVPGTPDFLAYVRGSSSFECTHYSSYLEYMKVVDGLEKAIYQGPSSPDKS
Put plainly: O-methyl metabolite formation by COMT in biological fluids. Type of data set: in vitro ADME. As to conditions: no methoxy derivatives detected in any of the biological fluids studied. The protocol: In an attempt to ascertain whether any biotransformation of the free catechol is taking place by COMT (catechol-O-methyltransferase) either before or after oxidation, the possible O-methyl metabolites (9 and 10) were synthesized separately following Scheme 4 with 3-methoxytyramine hydrochloride as the starting material. [drawing 52] [drawing 53]
Figures 1-4 illustrate the results of such an investigation. The apparent half-lives for the disappearance of 5c in biological fluids at 37°C were calculated. […] The obtained values, 51 min (80% plasma), 17 min (20% brain homogenate), 18 min (whole citrated blood) and 6 min (20% liver homogenate), reflect an acceptable stability of the dihydro derivative 5c. The disappearance of 5c is accompanied by formation of some monoester (11) and dihydroxy dihydro form (5a) in all the media except the liver homogenate. The rate of hydrolysis of the first ester moiety is faster than the second and a reasonable amount of monoester 11 builds up with time. […] Thus, it is established that this derivative, 6a, is forming as the main product of the various interconversion routes and it is the direct precursor thus concluded to be locked in the brain in the in vivo experiment.

Another data set has as its system serum prolactin. In words: In vivo effect on pituitary prolactin secretion (17-β-estradiol primed male rats). The settings on record: I.V. 1 mg/kg. From the text:
Adult male rats (Charles Rivers, CD-1) weighing 200 to 225 g were provided food and water ad libitum for at least one week period to experimentation. To elevate serum prolactin levels, each rat received a single s.c. implant of a Silastic tube (1.57 mm interior diameter, 5 mm x 3.15 mm overall size) packed with crystalline 17-,8-estradiol. Two days later the rats were lightly anesthetized with ether and a small incision was made over the right jugular vein for intravenous (LV.) administration of the test drugs. Compound 6a was injected at a dose of 1 mg/kg body weight/ml saline and groups of six rats were decapitated at 15, 30, 60 and 120 min later to collect blood samples. Control rats (time 0) received an I.V. injection of the saline vehicle and were decapitated 30 min later. Compound 5c was dissolved in 10% ethanol in saline and was injected IV. Rats were decapitated at 15, 30 and 120 min later. Control (time 0) animals received the 10% ethanol vehicle and were sampled 30 min later.
Trunk blood was collected, allowed to clot for 2h and the serum was separated and stored at -20 ° C for subsequent assay for prolactin concentrations. Each serum sample was assayed in duplicate by the doubleantibody radioimmunoassay procedure described by the National Pituitary Agency Hormone Distribution Program. Serum prolactin concentrations are expressed in terms of the PRL-RP-2 reference preparation provided. The intraassay coefficient of variation for 10 replicate samples of pooled serum obtained from male rats was 13.8%.
The effects of compounds 5c and 6a on serum prolactin concentrations were evaluated by one-way analysis of variance and Student-Newman Keuls tests. A probability level of less than 0.05 was selected for significance. See FIGURE 7 and the discussion thereof hereinabove.

The nature of data set [2]: Kinetics of oxidation of the dihydro derivatives in whole blood. In kind it is in vitro ADME, human. As to conditions: 37°C; for half-life: human. The procedure: In Whole Blood: In each of 5 tubes, 0.1 ml of 10 x 10-^4 M methanolic solution of the freshly prepared dihydro derivative, was added 2 ml of fresh heparinized whole human blood and the tubes were kept at 37°C in a water bath. At the end of the time period to be investigated, 8 ml of acetonitrile was added, shaken vigorously and centrifuged. The extension of the supernatant solution at 350 nm was measured. A reference sample was made by addition of 0.1 ml of methyl alcohol instead of the sample solution following the same procedure.

Data set [3] can be described thus: Chemical oxidation by hydrogen peroxide and silver nitrate. In kind it is physicochemical. As to conditions: 30% H2O2, UV spectrum. The procedure: The stability of the 1,4-dihydropyridine derivatives (5) was determined in the presence of the oxidizing agents, alcoholic AgN03 and hydrogen peroxide. The in vitro rates of oxidation of the 1,4-dihydropyridine derivative (5c) in 80% plasma, 20% brain homogenate, 20% liver homogenate and in whole blood were determined.
To 10 ml of 30% H202 was added 0.2 g of the dihydropyridine derivative (products of Examples 5 or 8). The mixture was stirred and samples were taken to check the UV spectrum.
To 5 ml of saturated methanolic AgN03 solution was added 1 ml of 5% methanolic solution of the dihydropyridine derivative. The mixture was shaken and left for 5 min for complete precipitation of silver, centrifuged and an aliquot was taken to check the UV spectrum. Complete oxidation to the quaternary salts was observed.

A short description of data set [4]: Kinetics of oxidation of the dihydro derivatives in brain homogenate. In kind it is in vitro ADME, rat. The settings on record: pH 7.4, 37°C; for half-life: rat. The protocol:
In Brain Homogenate: 2.0 g of rat brain tissue were homogenized in 10 ml of phosphate buffer, pH 7.4. The homogenate was centrifuged for 15 min at 3000 rpm, decanted, heated in a water bath at 50°C for 5 min and then centrifuged again. The supernatant solution was diluted to 100 ml with phosphate buffer, pH 7.4.
Reference Sample: 0.2 ml of methyl alcohol was diluted to 10 ml with the brain homogenate solution, and the solution was used to record the base line on Cary 219 spectrophotometer and as a reference for the dihydro derivative sample solution.
Dihydro Derivative Sample Solutions: 0.2 ml of 6.25 x 10-^4 M methanolic solution of the freshly prepared dihydro derivative was diluted to 10 ml with the brain homogenate solution. The mixture was scanned at 37 ° C from 400 nm to 300 nm every 10 min for 2 hrs on […] spectrophotometer.

For data set [5] the following is noted: cited from earlier work.
The nature of data set [6]: Lability of the catechol esters to hydrolysis. Type of data set: physicochemical. The settings on record: diacetyl derivatives. From the text: Attempts to prepare 7 by using dopamine free base were largely unsuccessful. As for the catechol protecting groups, the acetyl and pivalyl moieties were selected due to their rather different steric and partitioning parameters. Acylation could be accomplished with the acyl chlorides by using conventional methods. Reduction of the quaternaries (6a-c and 9) was accomplished by using sodium dithionite in mildly basic aqueous solution, (NaHC03). It was observed that the dihydro compound obtained in the case of the quaternary 6b gave a faint green color with ferric ions, indicating partial hydrolysis of at least one of the acetyl moieties during reduction, even in the cold, weakly basic solution used as a medium. The dihydropyridine derivatives isolated (5a-c and 10) were determined to have the expected 1,4-dihydropyridine structure, based on their NMR and UV spectra.
The dipivalyldihydro derivative (5c) was thoroughly investigated for its in vitro rates of disappearance and metabolic degradation in various biological fluids. It is evident that 5c represents a rather complex case, as besides oxidation, a two-step hydrolysis will also take place. Scheme 5 illustrates the interconversion of the possible components. [drawing 54]

Regarding `NCCc1ccc(O)c(O)c1` [DA, dopamine, reference compound], the “Prolactin release rate of the incubated AP-S” value (shortened to “Prolactin release rate”) in the data set with anterior pituitary (AP) (2x10^-7M) amounted to 121±38 ng/mg. h. For the same compound, in the data set with anterior pituitary (AP) (2x10^-8M), the “effect on the rate of release of prolactin” value is “neither DA nor 6a had any effect” and the “Prolactin release rate” value worked out at 355±67 ng/mg. h. The inhibition at 0.2 µM in the data set on anterior pituitary (AP) (Rattus norvegicus, 1 h, 2x10-^7 M, read-out: reduction of the prolactin rate secretion) worked out at 57%.

Consider `C[n+]1cccc(C(=O)NCCc2ccc(O)c(O)c2)c1` [6a], for which the “substrate for COMT” value in data set [1] is “do not appear to be good substrates for COMT”. For the same compound, the “reduction of the prolactin rate secretion” value in the data set with anterior pituitary (AP) (2x10-^7 M) is reported as “no effect”. The “Prolactin release rate” value with anterior pituitary (AP) (2x10^-7M) was 277±32 ng/mg. h. Also, in the data set with anterior pituitary (AP) (2x10^-8M), the “effect on the rate of release of prolactin” value is on record as “neither DA nor 6a had any effect” and the “Prolactin release rate” value is given as 386±29 ng/mg. h. For the same compound, the “serum prolactin levels versus vehicle injected controls” value in the data set on serum prolactin (by 60 and 120 min) is listed as “not significantly different from vehicle injected controls”. For the same compound, the “effect on the serum prolactin concentrations” value in the data set on serum prolactin (by 15 min) was “no significant effect”. Moreover, the “reduction of serum prolactin concentrations” value with serum prolactin (by 30 min) is listed as 67%.

Turning to `CCOC(=O)C1=CN(C)C=C(C(=O)NCCc2ccccc2)C1` [5-Carboethoxy-1-methyl-3-(N-β-phenethyl)carbamoyl-1,4-dihydropyridine], in data set [2], the “Kinetics of Oxidation (rate constant)” value is on record as 1.13 x 10^-4 n=5 r=.972 and the half-life (in general, the time in which the quantity being followed falls by half) was 1.7 h. Also, in data set [3], the “Oxidation by Hydrogen Peroxide” value was “Complete oxidation to the corresponding quaternary salts”. Moreover, in data set [4], the “Kinetics of Oxidation (rate constant)” value is recorded as 1.74 x 10^-5 n=6 r=.993 and the half-life was 11.1 h.

As to `CCCC(CCC)C(=O)[O-].[Na+]` [sodium valproate], the “level in the blood needed to achieve the required activity” value in data set [5] was 50 to 100 µg/mL.

For `CN1C=CCC(C(=O)NCCc2ccc(O)c(O)c2)=C1` [5a, 1-Methyl-3-{N-[β-(3,4-dihydroxyphenyl)-ethyl]}carbamoyl-1,4-dihydropyridine], in data set [1], the “substrate for COMT” value is “do not appear to be good substrates for COMT”.

As for `CC(=O)Oc1ccc(CCNC(=O)c2ccc[n+](C)c2)cc1OC(C)=O` [6b, 1-Methyl-3-{N-[β-(3,4-diacetoxy-phenyl)ethyl]} carbamoyl-pyridinium iodide], the lability to hydrolysis result in data set [6] is given as “labile to hydrolysis”.

Consider `CC(=O)Oc1ccc(CCNC(=O)C2=CN(C)C=CC2)cc1OC(C)=O` [5b, 1-Methyl-3-(N-[6-(3,4-diacetoxyphenyl)-ethyl]}carbamoyl-1,4-dihydropyridine], for which, in data set [6], the lability to hydrolysis entry was “labile to hydrolysis”.

Consider `CN1C=C(C(=O)NCCc2ccccc2)CC(C(=O)NCCc2ccccc2)=C1` [1-Methyl-3,5-di(N-β-phenethyl)carbamoyl-1,4-dihydropyridine], for which the “Kinetics of Oxidation (rate constant)” value in data set [2] was 4.9 x 10^-5 n=5 r=.949; in data set [4] it was 8.4 x 10^-6 n=6 r=.997. Besides, the values for the half-life in data set [2] (unit inferred) and in data set [4] (unit inferred) were 3.9 h and 22.9 h, respectively. In addition, the “Oxidation by Hydrogen Peroxide” value in data set [3] is reported as “Complete oxidation to the corresponding quaternary salts”.
